# Test results as given in US5744476A, “Dopamine D1 agonists for the treatment of dementia” (Interneuron Pharmaceuticals, Inc., priority 1994, dated 1998).
# “Also recorded” adds a separate entry of the source. Read-outs that look alike come from different tables or passages of the source.
# Assays:
# striatal acetylcholine = experiment: In vivo microdialysis, striatal ACh release; set-up: species or system Male Sprague-Dawley rats; details: for dialysate concentrations of striatal ACh / duration of increase of dialysate concentrations of striatal ACh: i.p.; for duration of increase of dialysate concentrations of striatal ACh: post-injection
# Excerpt: (§1) The in vivo microdialysis technique is a method for evaluating the effects of drugs on brain neurotransmitter systems by monitoring the extracellular concentration of neurotransmitters and metabolites in awake freely-moving animals. Probes are implanted directly into the brain of rats and serve to continuously sample the extracellular fluid in the vicinity of the probe. Samples containing the dialyzed extracellular fluid are collected at the outlet of the perfusion system and analyzed for content of brain neurotransmitters and metabolites by high-performance liquid chromatography coupled with electrochemical detection (HPLC-EC).
# Male Sprague-Dawley rats weighing 250-350 g were group housed (n=3 per cage) in a temperature-controlled room (23±2° C.) on a 14/10 hr light cycle with free access to food and water. After the surgical procedure, animals were placed in individual cages.
# The surgical procedure involved the implantation and fixation of a probe holder/guide cannula to the skull of anesthetized rats. The guide cannula was the attachment site for the rigid concentric microdialysis probes which were implanted into the awake, fully-recovered rat at the onset of the experiment. […] For placement of the guide cannulae, rats were anesthetized with ketamine:xylazine (87:13 mg/kg), shaved and placed in a stereotaxic frame (Narashige Instruments). An incision was made to expose the skull and a small hole was drilled to expose the dura mater for placement of the guide. Guide cannulae were implanted in the striatum according to the following stereotaxic coordinates with reference to bregma: AP -+1.5 mm, L -+2.6 mm and V to dura -2.5 mm (Paxinos and Watson, The rat brain in stereotaxic coordinates, 2nd. ed., Academic Press, London, 1986). The microdialysis probe extended 3.0 mm beyond the tip of the guide cannula which yielded a final ventral placement of 5.5 mm below the dura. The coordinates for placement of the guide into frontal cortex were: AP -+3.0 mm, L -+2.8 mm and V to dura 0 mm, with the probe extending 3.0 mm below the dura. Guide cannulae were fixed to the skull with dental acrylic and anchor screws and a dummy cannula was inserted into each guide for the recovery period. Animals were returned to their home cage and allowed to recover from surgery for 24-48 hrs.
# For each experiment, the dialysis probe was connected to a microinfusion pump (CMA-100; Bioanalytical Systems (BAS); W. Lafayette, Ind.) equipped with a liquid switch (CMA-110; BAS) via low dead volume fused-silica tubing (I.D.=75 um; O.D.=150 um). At the time of experiment, the dummy cannula was removed and the probe was inserted through the guide into the conscious animal under light restraint.
# The probe was perfused continuously with artificial CSF (composition in Mm: 121 NaCl, 3.5 KCl, 1.2 CaCl2, 1.2 MgCl2, 1.0 NaH2 PO4, 25 NaHCO3, and 0.001 neostigmine) at a flow rate of 1.5 ul/min. Dialysate samples were collected every 20 min (total sample volume=30 μl). A 20 ul aliquot was analyzed immediately for acetylcholine (ACh) content by high-performance liquid chromatography with electrochemical detection (HPLC-EC) (see below for details). A baseline period of at least one hour was allowed prior to invoking any experimental manipulations. […] Sample collection proceeded for a minimum of 3 hrs following drug administration. Upon completion of the experiment, animals were sacrificed by decapitation and brains examined grossly to verify probe placement.
# DHX and SKF 81297, another D1 agonist (Andersen et al., Eur J Pharmacol 188:335, 1990), were administered ip after a stable baseline of ACh release was established in each animal. […] The effects of DHX on ACh release were evaluated in two brain regions associated with cognition (striatum, frontal cortex).
# [1] = Concentration of DHX in brain and plasma over time; format: in vivo, rat; details: 10 mg/kg
# Excerpt: (§2) The test protocol followed is disclosed in Ungerstedt, Acta Physiol. Scand. 82 Supp. 367, p. 49-68 (1971). […] This activity may reside in one or more optical isomers of such a metabolite.
# monkeys = details: cited from earlier work
# [2] = test system: scopolamine-induced deficits (rats); experiment: Passive avoidance in rats, scopolamine-induced amnesia (step-through latency); details: scopolamine 3.0 mg/kg
# adenylate cyclase = details: cited from earlier work
# 6-OHDA-lesioned rats = experiment: Rotational behavior in 6-OHDA-lesioned rats (rodent model of PD); format: in vivo, rat; details: 10 mg/kg
# Excerpt: as §2
# [3] = test system: MPTP-induced parkinsonism model in primates; details: cited from earlier work
# [4] = test system: acetylcholine release in the frontal cortex; experiment: In vivo microdialysis, frontal cortex ACh release; set-up: species or system Male Sprague-Dawley rats; details: injection of DHX
# Excerpt: as §1, with “(HPLC-EC). […]” for “(HPLC-EC).”
# The probe was perfused continuously with artificial CSF (composition in Mm: 121 NaCl, 3.5 KCl, 1.2 CaCl2, 1.2 MgCl2, 1.0 NaH2 PO4, 25 NaHCO3, and 0.001 neostigmine) at a flow rate of 1.5 ul/min. […] A 20 ul aliquot was analyzed immediately for acetylcholine (ACh) content by high-performance liquid chromatography with electrochemical detection (HPLC-EC) (see below for details). […]
# DHX and SKF 81297, another D1 agonist (Andersen et al., Eur J Pharmacol 188:335, 1990), were administered ip after a stable baseline of ACh release was established in each animal. […] The effects of DHX on ACh release were evaluated in two brain regions associated with cognition (striatum, frontal cortex). […]
# dopamine D1 receptor = details: cited from earlier work
# cortical ACh release = details: in vivo; cited from earlier work
# animals = details: cited from earlier work; for memory-improving effect of nigrostriatal self-stimulation or of d-amphetamine (blockade): in vivo
# striatal ACh output = details: cited from earlier work
# [5] = test system: choice accuracy deficits (CADS) due to scopolamine; details: radial arm maze; cited from earlier work
# rodents = details: cited from earlier work; for retention of win-stay and win-shift tasks: Packard and White, 1989
# PD patients = details: clinical; cited from earlier work
compound,measurement,setting,value
"Oc1cc2c(cc1O)[C@@H]1c3ccccc3CN[C@H]1CC2 (relative stereo) [DHX, trans-10,11-dihydroxy-5,6,6a,7,8,12b-hexahydrobenzo[a]phenanthridine]",dialysate concentrations of striatal ACh,striatal acetylcholine; 3.0 mg/kg,increase in dialysate concentration of striatal acetylcholine; also recorded: increase dialysate concentrations of striatal ACh
same,duration of increase of dialysate concentrations of striatal ACh,striatal acetylcholine; 3.0 mg/kg,at least 180 min
same,dialysate concentrations of striatal ACh,striatal acetylcholine; 10 mg/kg,increase in dialysate concentration of striatal acetylcholine; also recorded: increase dialysate concentrations of striatal ACh
same,duration of increase of dialysate concentrations of striatal ACh,striatal acetylcholine; 10 mg/kg,at least 180 min
same,striatal ACh release,striatal acetylcholine; 17.5 mg/kg,appears to be less than that evoked by lower doses
same,levels of DHX in the brain and plasma,[1],diminished
same,spatial working memory,"monkeys; young, intact monkeys","produced improvements in young, intact monkeys"
same,step-through latency,[2]; DHX 0.1 mg/kg,"increased step-through latency, however, these increases were not statistically-significant"
same,step-through latency (reversal of scopolamine-induced deficits),"[2]; DHX 0.3 mg/kg, 10 min prior to training",significantly improve scopolamine-induced deficits; also recorded: significantly improved scopolamine-induced deficits in step-through latency
same,step-through latency,[2]; DHX 1.0 mg/kg,"increased step-through latency, however, these increases were not statistically-significant"
same,potency in the stimulation of adenylate cyclase versus dopamine,adenylate cyclase; versus dopamine,approximately 70 times more potent
same,efficacy in the stimulation of adenylate cyclase versus dopamine,"adenylate cyclase; versus dopamine, in words",as efficacious
same,"biological activity in a rodent model of PD (rotational behavior), persistence",6-OHDA-lesioned rats,persists long after the levels of DHX in the brain and plasma have diminished
same,eye blink rates,"[3]; 0.3 to 0.93 mg/kg, im",increasing eye blink rates
same,"parkinsonian signs (tremor, motor freezing, abnormal posture, rigidity, bradykinesia)","[3]; 0.3 to 0.93 mg/kg, im",dramatically attenuated parkinsonian signs
same,activity in the MPTP-induced parkinsonism model,[3]; primates,potent activity in the MPTP-induced parkinsonism model in primates
same,ACh release in the frontal cortex,[4],increase in acetylcholine release in the frontal cortex; also recorded: increased ACh release in the frontal cortex
same,affinity for D1 receptor,dopamine D1 receptor; D1,nanomolar affinity
same,selectivity for the D1 over the D2 receptor,dopamine D1 receptor,12- to 60 fold
"CN1Cc2ccccc2C2c3cccc4[nH]cc(c34)CC21 (single isomer, unassigned) [CY 208-243]",cortical ACh release,cortical ACh release,significantly increased cortical ACh release
"NCCc1cc(O)c(O)cc1O [6-OHDA, 6-hydroxydopamine]",learning tasks after lesion of the nigrostriatal tract,"animals; avoidance conditioning, Morris water maze",impair a variety of learning tasks
same,memory-improving effect of nigrostriatal self-stimulation or of d-amphetamine (blockade),animals,blocked
Oc1cc2c(cc1O)[C@@H](c1ccccc1)CNCC2 [(+)-SKF 38393],increase of striatal ACh output,striatal ACh output; systemic administration,75%
CCCN1CCO[C@@H]2c3cc(O)ccc3CC[C@H]21 [PHNO],cortical ACh release,cortical ACh release,no effect
Oc1cc2c(cc1O)C(c1ccccc1)CNCC2 (stereo not shown) [SKF38393],spatial working memory,monkeys; aged and reserpine-treated monkeys,improved spatial working memory in aged and reserpine-treated monkeys
same,choice accuracy deficits due to scopolamine,[5],alleviated choice accuracy deficits (CADS) due to scopolamine
same,retention of win-stay and win-shift tasks,rodents,"but not SKF38393, improved retention of the tasks"
same,efficacy in stimulating adenylate cyclase relative to dopamine,adenylate cyclase; as efficacious as dopamine,30-50%
same,selectivity for the D1 over the D2 receptor,dopamine D1 receptor,greater than 10 fold
Oc1cc2c(c(Cl)c1O)CCNCC2c1ccccc1 (stereo not shown) [SKF 81297],dialysate concentrations of striatal ACh,striatal acetylcholine; 3.0 mg/kg,increase in dialysate concentration of striatal acetylcholine; also recorded: elevated striatal ACh release
CN1[C@@H]2C[C@@H](OC(=O)[C@H](CO)c3ccccc3)C[C@H]1[C@@H]1O[C@@H]12 [Scopolamine],acquisition of the passive avoidance task (deficit),"[2]; ip, 30 min prior to training",severe deficit in the acquisition of the passive avoidance task
CC(C)C[C@H]1C(=O)N2CCC[C@H]2[C@]2(O)O[C@](NC(=O)[C@@H]3C=C4c5cccc6[nH]c(Br)c(c56)C[C@H]4N(C)C3)(C(C)C)C(=O)N12 [bromocriptine],efficacy in the treatment of PD,PD patients,either limited efficacy relative to levodopa or limited long-term efficacy
C[C@H](N)Cc1ccccc1 [d-amphetamine],memory improvement,animals; indirect dopamine agonist,memory-improving effects
same,retention of win-stay and win-shift tasks,rodents,improved retention of the tasks
same,win-stay acquisition,rodents; post-training intracaudate injection,improved win-stay acquisition
N[C@@H](Cc1ccc(O)c(O)c1)C(=O)O [levodopa],efficacy in the treatment of PD,PD patients,allowed PD patients to reach normal life expectancies
CCCN1C[C@H](CSC)C[C@@H]2c3cccc4[nH]cc(c34)C[C@H]21 [pergolide],efficacy in the treatment of PD,PD patients,either limited efficacy relative to levodopa or limited long-term efficacy
O=c1[nH]c2ccccc2n1C1CCN(CCCC(c2ccc(F)cc2)c2ccc(F)cc2)CC1 [pimozide],memory-improving effect of nigrostriatal self-stimulation or of d-amphetamine (blockade),animals,blocked
CCCN1CCC[C@@H]2Cc3n[nH]cc3C[C@H]21 [quinpirole],striatal ACh release,"striatal acetylcholine; 2.0 mg/kg, data not shown",decreases striatal ACh release
CCN1CCC[C@H]1CNC(=O)c1c(O)c(Cl)cc(Cl)c1OC [raclopride],effect of D1 agonist on striatal ACh output (potentiation),striatal ACh output; administered 60 min after SKF 38393,potentiated
